The test deals with P. aeruginosa PAO1. Also on record: MICDrug / MICDrug in combo / MIC of adjuvant in combo: unit not given beside the values. Conditions: for MICDrug: antibiotic alone. On the procedure: The potential of the dilipid polymyxins to serve as an adjuvant in combination with other antibiotics was evaluated against P. aeruginosa PAO1 strain (Tables 4 and 7-12). […] Checkerboard assays were performed with the dilipid polymyxins in combination with twenty-one clinically-used antibiotics. The panel included representatives from the β-lactam, carbapenem, tetracycline, aminoglycoside and fluoroquinolone antibiotic families. Other agents that are used to treat Gram-negative bacterial infection such as fosfomycin, trimethoprim and chloramphenicol were also included. […] Fractional inhibitory concentration (FIC) index was calculated for each combination to measure potential synergism between the two agents. FIC was obtained by dividing the MIC of antibiotic/adjuvant in combination by the MIC of antibiotic/adjuvant alone, while FIC index was calculated by the summation of FIC indices for the antibiotic and adjuvant. An FIC index of ≤0.5, 0.5<x≤4, or >4 denotes for synergistic, additive or antagonistic interaction, respectively. Initially, we assessed the adjuvant properties of PMBN against the panel of 21 antibiotics.
The assay was performed on 96-well plates as previously described. Briefly, the antibiotic at study was 2-fold serially diluted along the x-axis, while the adjuvant was 2-fold serially diluted along the y-axis to create a matrix in which each well consists of a combination of both at different concentrations. Overnight grown bacterial cultures were diluted in saline to 0.5 McFarland turbidity, followed by 1:50 dilution in MHB and inoculation on each well to a final concentration of approximately 5×10^5 colony forming units/mL. Wells containing only MHB with or without bacterial cells were used as positive or negative control, respectively. […] The fractional inhibitory concentration (FIC) of the antibiotic was calculated via dividing the MIC of antibiotic in the presence of adjuvant by the MIC of antibiotic alone. Similarly, the FIC of adjuvant was calculated via dividing the MIC of adjuvant in the presence of antibiotic by the MIC of adjuvant alone. The FIC index was obtained by the summation of both FIC values. The FIC index was then interpreted as synergistic, additive, or antagonistic for values of ≤0.5, 0.5<x<4, or ≥4, respectively.

The mark [1] stands for this setting: antibiotic in combination with 1.
Where [2] appears, read: antibiotic in combination with 3.
[3] abbreviates: antibiotic in combination with 4.
Where [4] appears, read: antibiotic in combination with 5.
Where [5] appears, read: antibiotic in combination with PMBN.
Where [6] appears, read: antibiotic in combination with 2.

SMILES strings stand for the structures. Where two headings read alike, the source gives them in different places.

In the case of `C[C@H]1[C@H](NC(=O)/C(=N\OC(C)(C)C(=O)O)c2csc(N)n2)C(=O)N1S(=O)(=O)O` [Aztreonam, reference compound], the MICDrug came to 4. The MICDrug in combo entry under setting [1] was “(0.5)”. Further, the MICDrug in combo result under setting [2] is recorded as “(1)”. Further, under setting [3], the MICDrug in combo entry is listed as “(0.0625)”. Besides, the MICDrug in combo result under setting [4] was “(0.5)”. The MICDrug in combo entry under setting [5] is “(0.5)”.

As for `CC(C)(O/N=C(\C(=O)N[C@@H]1C(=O)N2C(C(=O)[O-])=C(C[n+]3ccccc3)CS[C@H]12)c1csc(N)n1)C(=O)O` [Ceftazidime, reference compound], the MICDrug came to 2. Also, the MICDrug in combo result under setting [1] is “(0.25)”. Further, the MICDrug in combo result under setting [6] was “(1)”. Further, the MICDrug in combo result under setting [2] is “(1)”. Under setting [3], the MICDrug in combo result is “(0.0625)”. For the same compound, under setting [4], the MICDrug in combo result is given as “(0.25)”. The MICDrug in combo entry under setting [5] was “(0.25)”.

With `O=C(N[C@H](CO)[C@H](O)c1ccc([N+](=O)[O-])cc1)C(Cl)Cl` [Chloramphenicol, reference compound], the MICDrug stood at 32. Besides, the MICDrug in combo entry under setting [1] is “(2)”. The MICDrug in combo entry under setting [6] was “(4)”. Also, the MICDrug in combo entry under setting [2] is “(4)”. The MICDrug in combo entry under setting [3] is “(4)”. The MICDrug in combo result under setting [4] is on record as “(8)”. Further, the MICDrug in combo entry under setting [5] is listed as “(2)”.

Take `C[C@@H](O)[C@H]1C(=O)N2C(C(=O)O)=C(S[C@@H]3CN[C@H](CNS(N)(=O)=O)C3)[C@H](C)[C@H]12` [Doripenem, reference compound]: the MICDrug is 1. Further, the MICDrug in combo result under setting [1] was “(0.5)”. Besides, under setting [6], the MICDrug in combo entry was “(0.125)”. Besides, the MICDrug in combo result under setting [2] was “(0.5)”. Besides, the MICDrug in combo result under setting [3] is “(0.0625)”. For the same compound, under setting [4], the MICDrug in combo result is “(0.5)”. Moreover, the MICDrug in combo result under setting [5] is “(0.25)”.

With `C[C@H]1c2cccc(O)c2C(=O)C2=C(O)[C@]3(O)C(=O)C(C(N)=O)=C(O)[C@@H](N(C)C)[C@@H]3[C@@H](O)[C@@H]21` [Doxycycline, reference compound], the MICDrug in combo result reads like this: under setting [1], “(0.5)”; under setting [6], “(0.125)”; under setting [2], “(1)”; under setting [3], “(4)”; under setting [4], “(0.25)”; under setting [5], “(0.25)”.

`C[C@@H]1O[C@@H]1P(=O)(O)O` [Fosfomycin, reference compound]: the MICDrug in combo entry runs as follows: under setting [1], “(2)”; under setting [6], “(0.125)”; under setting [2], “(8)”; under setting [3], “(8)”; under setting [4], “(1)”; under setting [5], “(2)”.

With `CC(=O)NC[C@H]1CN(c2ccc(N3CCOCC3)c(F)c2)C(=O)O1` [Linezolid, reference compound], the MICDrug was found to be 1024. Besides, under setting [1], the MICDrug in combo result is “(64)”. Moreover, the MICDrug in combo result under setting [6] is recorded as “(1)”. In addition, the MICDrug in combo entry under setting [2] is “(0.25)”. The MICDrug in combo result under setting [3] is on record as “(0.25)”. In addition, under setting [4], the MICDrug in combo result is listed as “(32)”. Also, the MICDrug in combo entry under setting [5] is “(32)”.

For the compound `C[C@@H](O)[C@H]1C(=O)N2C(C(=O)O)=C(S[C@@H]3CN[C@H](C(=O)N(C)C)C3)[C@H](C)[C@H]12` [Meropenem, reference compound], the MICDrug in combo entry reads like this: under setting [1], “(0.25)”; under setting [6], “(0.0625)”; under setting [2], “(0.5)”; under setting [3], “(0.5)”; under setting [4], “(0.5)”; under setting [5], “(0.125)”.

Take `CN(C)c1ccc(O)c2c1C[C@H]1C[C@H]3[C@H](N(C)C)C(O)=C(C(N)=O)C(=O)[C@@]3(O)C(O)=C1C2=O` [Minocycline, reference compound]: the MICDrug worked out at 16. Further, the MICDrug in combo result under setting [1] is given as “(1)”. In addition, the MICDrug in combo result under setting [6] was “(4)”. In addition, the MICDrug in combo result under setting [2] is listed as “(2)”. Moreover, the MICDrug in combo entry under setting [3] is recorded as “(4)”. The MICDrug in combo entry under setting [4] is recorded as “(2)”. Also, under setting [5], the MICDrug in combo entry was “(0.5)”.
